The numbers were not newly measured in patent US20250235429A1, “TREATMENT OF DISEASES VIA ADMINISTRATION OF BUNTANETAP AND AN ANTIDIABETIC AGENT” (ANNOVIS BIO, INC., priority 2024, published 2025), which cites them from elsewhere.

One series relates to tau. To be noted: Human tau mice; unpublished observation; cited from earlier work.
The next series relates to rat acute glaucoma model. The note with it: cited from earlier work.
Series [1] concerns APP, Tau, and aSYN in the cerebrospinal fluid (CSF) of MCI subjects. The note with it: cited from earlier work.

As for `CN1CC[C@]2(C)c3cc(OC(=O)Nc4ccccc4)ccc3N(C)C12` (stereo partly drawn) [Buntanetap, (3aR)-1,3a,8-trimethyl-1,2,3,3a,8,8a-hexahydropyrrolo[2,3-b]indol-5-yl phenylcarbamate], in the series with tau, the tau in vivo result was “lowers”. For the same molecule, in the series on rat acute glaucoma model (acute glaucoma), the retina result is on record as “Preserved”. Moreover, the nerve cells entry in the series with rat acute glaucoma model (rat acute glaucoma model) was “protected”. In addition, in series [1] (MCI subjects, 4×60 mg/day), the “levels of APP, Tau, and aSYN in the cerebrospinal fluid (CSF)” value is on record as “normalized”. For the same molecule, in series [1] (MCI subjects), the “CSF A342” value is listed as “trend to lower”; the “CSF levels of sAPPa, sAPPP, t-tau, p-tau, and specific inflammatory markers” value is reported as “significantly lowered”. For the same molecule, the inflammation result in series [1] (human CSF of MCI subjects) was “lowered”.
